This note sets out measurements from PMC10381309 (Journal of Fungi, 2023).

Assay [1] relates to Exophiala heteromorpha (ATCC 28180). The conditions noted are these: E. heteromorpha; PDA; 7 days, 37 °C; albendazole at ½ MIC.
Procedure: (§1) At the end of the seven days of incubation at 37 °C, the plates were read visually. The aspect of the colonies supplemented with albendazole were compared to those of the positive melanin and inhibition melanin controls, to determine whether the color of the albendazole-supplemented cultures resembled the positive DHN-melanin or the melanin inhibition control. Pictures of the colonies were captured using a Canon EOS Rebel T7+ digital camera.
Assay [2] relates to Fonsecaea pedrosoi (CFP 00791). As to conditions: F. pedrosoi; PDA; 7 days, 37 °C; albendazole at ½ MIC.
Procedure: as §1

Take `CCCSc1ccc2nc(NC(=O)OC)[nH]c2c1` [Albendazole]: the melanin production result in assay [1] and in assay [2] was “did not observe a decrease in melanin production” throughout.
